This passage reports T/C value, TGI value and IC50 results from patent US12459940B2, “Oxazole compound as multi-targeted inhibitor of IRAK4 and BTK” (SHANGHAI FOSUN PHARMACEUTICAL INDUSTRIAL DEVELOPMENT CO., …, priority 2019, dated 2025).

Experiment [1] deals with human B-cell lymphoma OCI-LY10 cell subcutaneous xenograft tumor. In words: Human B-cell lymphoma OCI-LY10 cell subcutaneous xenograft tumor mouse model. The class given is in vivo. Particulars: 10 mpk, 18 days after the start of administration, p<0.001. The procedure: The objective of the experiment was to study the efficacy of WX001 as the test drug on human B-cell lymphoma OCI-LY10 cell subcutaneous xenograft tumor in CB17 SCID mouse model.
OCI-LY10 human B-cell lymphoma cells were cultured in a 37° C., 5% CO2 incubator.
OCI-LY10 tumor cells were cultured and passaged, and 0.2 mL (1×10^7 cells) OCI-LY10 cells were subcutaneously inoculated on the right back of each […] (with Matrigel, volume ratio 1:1), and the group administration was started when the average tumor volume reached 167 mm^3. The health status and death of animals were monitored every day, and routine examinations included observing the effects of tumor growth and drug treatment on daily behaviors of animals, such as behavioral activities, food intake and water intake, weight change (weight was measured twice a week), tumor size (tumor volume was measured twice a week), appearance signs or other abnormal conditions.
The experimental index was to investigate whether the tumor growth was inhibited, delayed or cured. Including the measurement of tumor volume (TV), and the calculation of the compound's anti-tumor efficacy using TGI (%) or the relative tumor proliferation rate T/C (%).
TV=0.5a×b^2, a and b represented the long diameter and short diameter of the tumor, respectively.
T/C %=TRTV/CRTV×100% (TRTV: RTV in treatment group; CRTV: RTV in negative control group). Relative tumor volume (RTV) was calculated according to the results of tumor measurement, and the calculation formula was RTV=Vt/V0, wherein V0 was the average tumor volume measured at the time of group administration (i.e., d0), Vt was the average tumor volume at a certain measurement, and TRTV and CRTV were the data taken at the same day.
Background: A xenograft is tissue or cells of one species grown in another, often human tumour cells in immunodeficient mice.

Experiment [2] concerns TNF-α production in THP-1 cells. Description: THP-1 cytological TNFa ELISA assay (LPS-stimulated). The class given is cell-based. The conditions noted are these: Homo sapiens, TNF-α in culture supernatant, 150 ng/mL LPS, 18 hours. Here is the method: THP-1 human acute […] leukemia cells were purchased from ATCC (Cat #TIB-202) and cultured at 37° C. in 5% CO2 incubator. The composition of medium was RPMI1640 (Gibco, Cat #22400-105), and the supplementary compositions were 10% FBS (Gibco, Cat #10091148); 1% PenStrep (Gibco, Cat #15140); 0.05 mM 2-Mercaptoethanol (Sigma, Cat #M6250).
TNF-α Elisa kit was used to detect the content of TNF-α in cell culture supernatant samples. TNF-α was produced by stimulating THP-1 cells with 150 ng/mL LPS (Sigma, Cat #L6529).
THP-1 cells cultured normally at logarithmic growth stage were seeded in a 96-well plate (Corning #3599) at a certain concentration (1*10^5/100 μL) and then put into a cell incubator for incubation. After two hours, 16.7 μL of different concentrations of the compound to be tested (8*final concentration) were added and incubated in an incubator. After one hour, 16.7 μL of 1200 ng/mL LPS was added and incubated in an incubator. After 18 hours, the culture supernatant samples were collected by centrifugation, and the content of TNF-α could be detected by TNF-α Elisa kit. Finally, OD signals (OD450-OD570) were read on envision board reader.
The OD450-OD570 signal value was converted into a percentage inhibition rate. Inhibition rate %=(ZPE−sample)/(ZPE−HPE)*100.
“HPE” refers to the OD450-OD570 signal value of the control well without LPS stimulated cells, and “ZPE” refers to the OD450-OD570 signal value of the control well with LPS stimulated cells. The IC50 value of the compound was calculated by XLFit in the excel add-in. Y=Bottom+(Top−Bottom)/(1+(IC50/X)^HillSlope). Equation: […]
For orientation: In an ELISA, binding on a coated surface is turned into a signal by an enzyme label.

The target in the next experiment is T1, human IRAK4 (Homo sapiens, UniProt Q9NWZ3).
T1 construct: purchased Reaction Biology Corp
T1 sequence (Q9NWZ3 1-460): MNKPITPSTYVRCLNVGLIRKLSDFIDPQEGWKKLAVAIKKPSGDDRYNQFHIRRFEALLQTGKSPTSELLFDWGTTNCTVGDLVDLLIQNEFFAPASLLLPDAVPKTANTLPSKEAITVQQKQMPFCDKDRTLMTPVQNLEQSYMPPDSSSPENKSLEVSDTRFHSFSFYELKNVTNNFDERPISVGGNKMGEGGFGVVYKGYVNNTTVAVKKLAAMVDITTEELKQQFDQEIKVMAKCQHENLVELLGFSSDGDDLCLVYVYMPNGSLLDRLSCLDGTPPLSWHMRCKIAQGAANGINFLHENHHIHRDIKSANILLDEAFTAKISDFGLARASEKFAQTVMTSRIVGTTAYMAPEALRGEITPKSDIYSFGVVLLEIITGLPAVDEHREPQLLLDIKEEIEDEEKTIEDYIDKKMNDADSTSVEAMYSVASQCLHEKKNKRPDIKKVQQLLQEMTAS
Description: In vitro IRAK4 kinase activity, 33P isotope-labeled kinase activity assay (Reaction Biology Corp). It counts as biochemical. The procedure:
The IC50 values were determined using ^33P isotope-labeled kinase activity assay (Reaction Biology Corp) to evaluate the inhibitory ability of the tested compounds on human IRAK4.
(§1) Buffer conditions: 20 mM Hepes (pH 7.5), 10 mM MgCl2, 1 mM EGTA, 0.02% Brij35, 0.02 mg/mL BSA, 0.1 mM Na3VO4, 2 mM DTT, 1% DMSO.
Test procedure: At room temperature, the tested compound was dissolved in DMSO to prepare a 10 mM solution for later use. The substrate was dissolved in a newly prepared buffer solution, and the tested IRAK4 kinase was added thereto and mixed evenly. The DMSO solution dissolved with the tested compound was added to the above reaction mixture mixed evenly using acoustic technique (Echo 550). After incubation for 15 minutes, ^33P-ATP was added to initiate the reaction.

For the next experiment, the target named is T2, human BTK (Homo sapiens, UniProt Q06187).
T2 construct: purchased Reaction Biology Corp
Description: In vitro BTK kinase activity, 33P isotope-labeled kinase activity assay (Reaction Biology Corp). It counts as biochemical. Particulars: 33P-ATP, 2 hours at room temperature. Here is the method: The IC50 values were determined using ^33P isotope-labeled kinase activity assay (Reaction Biology Corp) to evaluate the inhibitory ability of the tested compounds on human BTK.
as §1
Test procedure: At room temperature, the tested compound was dissolved in DMSO to prepare a 10 mM solution for later use. The substrate was dissolved in a newly prepared buffer solution, and the tested BTK kinase was added thereto and mixed evenly. The compound dissolved in DMSO was added to the kinase reaction mixture through Echo 550 (Acoustic technology; Nanoliter range). After incubation for 20 minutes at room temperature, ^33P-ATP was added to initiate the reaction. The reaction was carried out at room temperature for 2 hours, and the radioactivity of the reaction liquid point was detected by filtration-binding method with P81 ion exchange filter paper. The kinase activity data were expressed by comparing the kinase activity of the group containing the tested compound with the kinase activity of the blank group (only containing DMSO), and the IC50 value was obtained by curve fitting by Prism4 software (GraphPad), the experimental results are shown in Table 10.

Experiment [3] has as its system TMD8 human B-cell lymphoma cells. Description: TMD-8 cell proliferation inhibition (CellTiter-Glo). It counts as cell-based. The conditions noted are these: TMD8, 72 h, treated for 3 days. Here is the method: TMD8 human B-cell lymphoma cells were cultured in a 37° C., 5% CO2 incubator. The composition of medium was RPMI1640 (GIBCO, Cat #22400-089); the supplementary compositions were 10% FBS (Hyclone, Cat #SH30084.03); 1% PenStrep (Thermo, Cat #SV30010).
(§2) The tumor cell lines OCI-LY10 and TMD8 were used to detect the effect of the compound on inhibiting tumor cell proliferation in vitro. The tumor cell line was cultured in a 37° C., 5% CO2 incubator according to the culture conditions shown, and passaged regularly, then the cells in the logarithmic growth phase were taken, counted, and spread in a 96-well plate (the cells in each well were adjusted to an appropriate concentration, a total of […] per well was added). After incubating overnight in a 37° C., 5% CO2 incubator, drugs with different concentration gradients (10 μL of drug solution was added) were added and treated for 3 days, then 50 μL of CellTiter-Glo working solution was added to each well, and the cell plate was wrapped with aluminum foil to avoid light. The culture plate was shaken on an orbital shaker for 2 minutes to induce cell lysis, and placed at room temperature for 10 minutes to stabilize the luminescence signal, then the luminescence signal was detected on the 2104 EnVision plate reader.
(§3) The Inhibition rate (IR) of the tested compound was calculated using the following formula: IR (%)=(1−(RLU compound−RLU blank control)/(RLU solvent control−RLU blank control))*100%.
(§4) The inhibition rates of different concentrations of the compounds were calculated in Excel, and then the inhibition curves were made by GraphPad Prism software and the related parameters were calculated, including the minimum inhibition rate, the maximum inhibition rate and IC50.
In general terms: ATP-based viability assays read luminescence as a measure of living cells.

The subject of experiment [4] is OCI-LY10 human B-cell lymphoma cells. Description: OCI-LY10 cell proliferation inhibition (CellTiter-Glo). The class given is cell-based. Particulars: OCI-Ly10, 72 h, treated for 3 days. Here is the method:
OCI-LY10 human B-cell lymphoma cells were cultured in a 37° C., 5% CO2 incubator. The composition of medium was IMDM (GIBCO, Cat #12440053); the supplementary compositions were 20% FBS (Hyclone, Cat #SH30084.03); 1% PenStrep (Thermo, Cat #SV30010).
as §2, §3, §4

Setting [5] is: 33P-ATP, 120 minutes at room temperature, read-out: IRAK4/IC50.

pIC50: −log10 of the molar value. Read-outs that look alike come from different tables or passages of the source.

T2 sequence (Q06187 whole entry): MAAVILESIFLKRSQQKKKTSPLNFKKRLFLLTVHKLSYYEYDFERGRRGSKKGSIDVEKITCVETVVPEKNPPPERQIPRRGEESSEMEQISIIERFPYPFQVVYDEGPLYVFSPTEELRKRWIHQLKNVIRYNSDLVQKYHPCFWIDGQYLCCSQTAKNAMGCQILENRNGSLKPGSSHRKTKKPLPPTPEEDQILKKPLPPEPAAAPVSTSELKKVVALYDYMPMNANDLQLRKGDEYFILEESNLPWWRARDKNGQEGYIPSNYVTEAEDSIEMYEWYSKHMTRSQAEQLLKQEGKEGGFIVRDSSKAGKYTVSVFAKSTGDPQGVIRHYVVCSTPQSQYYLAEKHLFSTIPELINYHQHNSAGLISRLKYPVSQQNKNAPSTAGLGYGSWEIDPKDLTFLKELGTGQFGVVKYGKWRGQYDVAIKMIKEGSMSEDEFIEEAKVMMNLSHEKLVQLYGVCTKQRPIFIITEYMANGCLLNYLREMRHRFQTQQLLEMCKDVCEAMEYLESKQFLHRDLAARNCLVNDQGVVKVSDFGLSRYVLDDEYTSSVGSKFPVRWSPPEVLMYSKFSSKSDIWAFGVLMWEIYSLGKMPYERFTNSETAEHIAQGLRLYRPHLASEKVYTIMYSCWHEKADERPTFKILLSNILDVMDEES

In experiment [1], `C=CC(=O)N1CCC[C@@H](n2nc(-c3ccc(Oc4ccccc4)cc3)c3c(N)ncnc32)C1` [Ibrutinib, reference compound] registered a T/C value of 39% and a TGI value of 85%.

Regarding `Cc1cc(-c2nc(C(=O)Nc3cn4cc(CCC(C)(C)O)nc4cc3N3CCNCC3)co2)ccn1` [WX003], the pIC50 is 6.25 in experiment [2] and 8.66 on human IRAK4.

For `COC(=O)N1CCN(c2cc3nc(CCC(C)(C)O)cn3cc2NC(=O)c2coc(-c3ccnc(C)c3)n2)CC1` [WX004], the values for the pIC50 (in experiment [2]; on human IRAK4) were 7.11 and 8.89, respectively.

On to `CC(=O)N1CCN(c2cc3nc(CCC(C)(C)O)cn3cc2NC(=O)c2coc(-c3ccnc(C)c3)n2)CC1` [WX005], for which the pIC50 is 6.59 in experiment [2] and 8.96 on human IRAK4 (setting [5]).

`Cc1cc(-c2nc(C(=O)Nc3cn4cc(CCC(C)(C)O)nc4cc3N3CCC(O)CC3)co2)ccn1` [WX006]: the results for the pIC50 (in experiment [2]; on human BTK; at human IRAK4) were 6.97, 7.32 and 8.92, respectively.

As for `Cc1cc(-c2nc(C(=O)Nc3cn4cc(CCC(C)(C)O)nc4cc3C3CC3)co2)ccn1` [WX007], the pIC50 in experiment [2] is 6.62; at human IRAK4 (setting [5]) it was 8.70.

For `CC(C)(O)CCc1cn2cc(NC(=O)c3coc(-c4ccnc(C(F)(F)F)c4)n3)c(N3CCCCC3)cc2n1` [WX010], the results for the pIC50 (in experiment [2]; at human IRAK4 (setting [5])) were 6.48 and 8.62, respectively.

Consider `CC(C)c1cc(-c2nc(C(=O)Nc3cn4cc(CCC(C)(C)O)nc4cc3N3CCCCC3)co2)ccn1` [WX011], for which the pIC50 is 6.85 in experiment [2], 7.63 against human BTK and 8.82 against human IRAK4.

Consider `Cc1cc(-c2nc(C(=O)Nc3cn4cc(CCC(=O)O)nc4cc3N3CCC(C)(C)CC3)co2)ccn1` [WX016], for which the pIC50 in experiment [3] is 6.66; in experiment [2], 6.77; at human BTK, 8.05; against human IRAK4, 9.05; in experiment [4], 6.33.

Turning to `Cc1cc(-c2nc(C(=O)Nc3cn4cc(CCC(=O)O)nc4cc3N3CCC(F)(F)CC3)co2)ccn1` [WX017], the pIC50 is 6.49 in experiment [2] and 8.80 on human IRAK4 (setting [5]).

Consider `Cc1cc(-c2nc(C(=O)Nc3cn4cc(CCC(=O)O)nc4cc3N3CCCCC3)co2)ccn1` [WX018], for which the pIC50 in experiment [2] is 6.98; at human BTK it was 7.32; against human IRAK4, 9.05.

On to `Cc1cc(-c2nc(C(=O)Nc3cn4cc(CCC(C)(C)O)nc4cc3-c3ccccc3)co2)ccn1` [WX021], for which the pIC50 in experiment [3] was 6.67; in experiment [2], 7.82; against human BTK, 7.86; on human IRAK4, 9.30; in experiment [4] it was 6.77.

Consider `Cc1cc(-c2nc(C(=O)Nc3cn4cc(CCC(C)(C)O)nc4cc3-c3ccccc3F)co2)ccn1` [WX024], for which the pIC50 in experiment [2] was 7.89; against human BTK it was 7.52; on human IRAK4 it was 9.15; in experiment [4], 6.68.

On to `Cc1cc(-c2nc(C(=O)Nc3cn4cc(CCC(C)(C)O)nc4cc3-c3cccc(F)c3)co2)ccn1` [WX025], for which the pIC50 was 7.68 in experiment [2], 7.66 against human BTK, 9.15 on human IRAK4 and 7.03 in experiment [4].

Turning to `Cc1cc(-c2nc(C(=O)Nc3cn4cc(CCC(C)(C)O)nc4cc3-c3ccc(F)cc3)co2)ccn1` [WX026], the pIC50 was 7.51 against human BTK and 6.46 in experiment [4].

On to `Cc1cc(-c2nc(C(=O)Nc3cn4cc(CCC(C)(C)O)nc4cc3-c3c(F)cccc3F)co2)ccn1` [WX029], for which the pIC50 is 7.62 against human BTK and 6.54 in experiment [4].

In turn, `Cc1cc(-c2nc(C(=O)Nc3cn4cc(CCC(C)(C)O)nc4cc3-c3ccc(Cl)cc3)co2)ccn1` [WX030] gave a pIC50 in experiment [4] of 6.68.

For `Cc1cc(-c2nc(C(=O)Nc3cn4cc(CCC(C)(C)O)nc4cc3-c3cccc(Cl)c3)co2)ccn1` [WX031], the results for the pIC50 (against human BTK; in experiment [4]) were 7.40 and 7.02, respectively.

With `Cc1cc(-c2nc(C(=O)Nc3cn4cc(CCC(C)(C)O)nc4cc3-c3cccs3)co2)ccn1` [WX032], the values for the pIC50 (on human BTK; in experiment [4]) were 7.58 and 6.41, respectively.
